Laboratory results from patent US20230295157A1, “3-(1H-IMIDAZOL-2-YL)-2,3,8,8A-TETRAHYDROINDOLIZIN-5(1H)-ONE DERIVATIVES USEFUL AS FACTOR XIA INHIBITORS” (JANSSEN PHARMACEUTICA NV, priority 2020, published 2023).
pIC50: −log10 of the molar value. Read-outs that look alike come from different tables or passages of the source.

Key:
[1] = target: Factor XIa (Homo sapiens (Human), UniProt P03951); assay: Factor XIa inhibition assay (FLINT) utilizing a fluorophore-quencher pair peptide substrate; type: biochemical; settings: 30 min preincubation, kinetic reads over 30 min, read-out: FXIa Kin Inh IC50
Factor XIa, sequence (P03951 388-625): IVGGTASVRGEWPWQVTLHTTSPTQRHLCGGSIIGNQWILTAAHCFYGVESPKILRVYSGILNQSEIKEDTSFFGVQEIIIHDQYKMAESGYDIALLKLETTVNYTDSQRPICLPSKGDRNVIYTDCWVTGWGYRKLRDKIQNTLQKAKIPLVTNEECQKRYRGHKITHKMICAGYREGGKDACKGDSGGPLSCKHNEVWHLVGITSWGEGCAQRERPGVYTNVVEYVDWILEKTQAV
Factor XIa, sequence (P03951 19-387 partner): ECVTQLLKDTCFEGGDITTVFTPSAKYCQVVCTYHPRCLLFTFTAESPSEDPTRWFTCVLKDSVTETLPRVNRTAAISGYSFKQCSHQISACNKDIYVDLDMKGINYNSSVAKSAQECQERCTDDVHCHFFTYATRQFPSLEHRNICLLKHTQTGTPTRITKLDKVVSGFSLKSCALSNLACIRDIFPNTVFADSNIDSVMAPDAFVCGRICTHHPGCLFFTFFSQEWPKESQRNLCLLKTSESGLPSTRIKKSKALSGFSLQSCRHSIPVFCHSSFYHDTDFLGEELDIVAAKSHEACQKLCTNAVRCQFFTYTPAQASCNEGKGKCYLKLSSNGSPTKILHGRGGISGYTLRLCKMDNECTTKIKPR
Procedure, shortened: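 FXIa ([…]) preincubated 30 min with compound (11-point 3-fold dilution, top 100 nM, 2% DMSO), then 15 μM quenched FXI Arg146-based peptide added; Tris pH 7.5, CaCl2, BSA, CHAPS. Fluorescence 485/520 nm read kinetically every 5 min over 30 min at RT; IC50 by 4-parameter fit.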

[2] = target: human plasma kallikrein (Homo sapiens (Human), UniProt P03952); assay: Kallikrein inhibition assay (FLINT) utilizing a quenched AMC peptide substrate; type: biochemical; settings: 30 min preincubation, read-out: Kallikrein Kin Inh IC50; for pIC50: kinetic reads over 30 min, Z-Gly-Pro-Arg-AMC substrate 50 μM
human plasma kallikrein, sequence (P03952 391-638): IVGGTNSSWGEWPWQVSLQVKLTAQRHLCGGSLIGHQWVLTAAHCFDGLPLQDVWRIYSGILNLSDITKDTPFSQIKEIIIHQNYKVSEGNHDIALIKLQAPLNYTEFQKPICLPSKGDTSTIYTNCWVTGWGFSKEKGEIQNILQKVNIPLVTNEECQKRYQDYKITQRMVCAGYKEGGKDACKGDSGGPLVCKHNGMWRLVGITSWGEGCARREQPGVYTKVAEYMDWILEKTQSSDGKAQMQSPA
human plasma kallikrein, sequence (P03952 20-390 partner): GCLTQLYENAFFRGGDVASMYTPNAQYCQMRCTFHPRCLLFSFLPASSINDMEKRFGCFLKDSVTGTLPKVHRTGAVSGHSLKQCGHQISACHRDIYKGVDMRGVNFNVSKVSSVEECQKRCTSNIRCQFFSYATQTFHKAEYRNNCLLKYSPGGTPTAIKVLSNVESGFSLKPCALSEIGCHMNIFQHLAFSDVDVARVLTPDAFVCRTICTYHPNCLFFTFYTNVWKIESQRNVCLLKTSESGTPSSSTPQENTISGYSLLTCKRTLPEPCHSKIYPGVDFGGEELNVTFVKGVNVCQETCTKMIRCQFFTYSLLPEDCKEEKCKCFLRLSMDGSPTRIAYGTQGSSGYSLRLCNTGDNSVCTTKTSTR
Procedure, shortened: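 Fluorogenic Z-Gly-Pro-Arg-AMC cleavage (50 μM substrate, 2 nM kallikrein, Tris pH 7.5, CaCl2, BSA, CHAPS, 2% DMSO) read kinetically at 340/440 nm for 30 min after 30-min compound pre-incubation. Compounds in 11-point 3-fold series from 1 μM; percent inhibition fitted to four-parameter equation for IC50.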

[3] = 5Fam-KLTRAETV-K5Tamra substrate 15 μM
[4] = 5Fam-[…]-K5Tamra substrate 15 μM

Row | Compound | pIC50 [1, 3] | pIC50 [2] | pIC50 [1, 4] | IC50 ([2]; μM, kinetic reads) [µM]
1 | O=C1C=C(c2c(-n3cnnn3)ccc(Cl)c2F)C[C@H]2CC[C@@H](c3nc(-c4cnc5[nH]ncc5c4)c[nH]3)N12 [Example 41, (3S,8aR)-3-(4-(1H-pyrazolo[3,4-b]pyridin-5-yl)-1H-imidazol-2-yl)-7-(3-chloro-2-fluoro-6-(1H-tetrazol-1-yl)phenyl)-2,3,8,8a-tetrahydroindolizin-5(1H)-one] | 7.35 | 7.27 |  | 
2 | CC1(C)C[C@@H](c2ncc(-c3ccc(N)nc3F)[nH]2)N2C(=O)C=C(c3c(-n4cnnn4)ccc(Cl)c3F)C[C@H]21 (relative stereo) [Example 337, (3S,8aS)-3-(5-(6-Amino-2-fluoropyridin-3-yl)-1H-imidazol-2-yl)-7-(3-chloro-2-fluoro-6-(1H-tetrazol-1-yl)phenyl)-1,1-dimethyl-2,3,8,8a-tetrahydroindolizin-5(1H)-one] |  | 7.90 | 8.82 | 
3 | O=C1C=C(c2cc(Cl)ccc2-n2cnnn2)C(F)(F)C2CC[C@@H](c3ncc(-c4ccnc(CO)c4F)[nH]3)N12 (stereo partly drawn) [Example 56, (3S)-7-(5-chloro-2-(1H-tetrazol-1-yl)phenyl)-8,8-difluoro-3-(5-(3-fluoro-2-(hydroxymethyl)pyridin-4-yl)-1H-imidazol-2-yl)-2,3,8,8a-tetrahydroindolizin-5(1H)-one] | 7.45 | 7.23 |  | 
4 | O=C1C=C(c2c(-n3cnnn3)ccc(Cl)c2F)C[C@@H]2CC[C@@H](c3nc(Cl)c(-c4ccnc([C@H](O)C(F)(F)F)c4)[nH]3)N12 (single isomer, unassigned) [Example 172, (3*S,8a*S)-7-(3-chloro-2-fluoro-6-(1H-tetrazol-1-yl)phenyl)-3-(4-chloro-5-(2-((*S)-2,2,2-trifluoro-1-hydroxyethyl)pyridin-4-yl)-1H-imidazol-2-yl)-2,3,8,8a-tetrahydroindolizin-5(1H)-one] | 8.44 | 8.21 |  | 
5 | Cn1cnc(-c2c[nH]c([C@@H]3CCC4CC(c5c(-n6cnnn6)ccc(Cl)c5F)=CC(=O)N43)n2)n1 (stereo partly drawn) [Example 255, (3S)-7-[3-Chloro-2-fluoro-6-(tetrazol-1-yl)phenyl]-3-[4-(1-methyl-1,2,4-triazol-3-yl)-1H-imidazol-2-yl]-2,3,8,8a-tetrahydro-1H-indolizin-5-one] | < 7.00 |  |  | > 1
6 | O=C1C=C(c2c(-n3cc(C(F)(F)F)nn3)ccc(Cl)c2F)C[C@H]2CC[C@@H](c3ncc(-c4ccc(CO)nc4Cl)[nH]3)N12 [Example 223, (3S,8aR)-7-(3-Chloro-2-fluoro-6-(4-(trifluoromethyl)-1H-1,2,3-triazol-1-yl)phenyl)-3-(5-(2-chloro-6-(hydroxymethyl)pyridin-3-yl)-1H-imidazol-2-yl)-2,3,8,8a-tetrahydroindolizin-5(1H)-one] | 7.80 | 6.86 |  | 
7 | O=C1C=C(c2c(-n3cnnn3)ccc(Cl)c2F)C[C@H]2CC[C@@H](c3ncc(-c4ccc5cc[nH]c5c4)[nH]3)N12 [Example 8] | 8.43 | 7.75 |  | 
8 | O=C1C=C(c2c(-n3cnnn3)ccc(Cl)c2F)C[C@H]2CC[C@H](c3nc(F)c(-c4ccnc(C5(O)CC5)c4F)[nH]3)N12 (single isomer, unassigned) [Example 109] | 8.32 | 7.45 |  | 
9 | NC(=O)c1sc(-c2c[nH]c([C@@H]3CC[C@H]4CC(c5c(-n6cnnn6)ccc(Cl)c5F)=CC(=O)N43)n2)cc1F [Example 215, 5-(2-((3S,8aS)-7-(3-Chloro-2-fluoro-6-(1H-tetrazol-1-yl)phenyl)-5-oxo-1,2,3,5,8,8a-hexahydroindolizin-3-yl)-1H-imidazol-4-yl)-3-fluorothiophene-2-carboxamide] | < 7.00 | 6.93 |  | 
10 | [2H]c1nc([C@@H]2CC[C@]3([2H])CC(c4c(-n5cnnn5)ccc(Cl)c4F)=CC(=O)N23)[nH]c1-c1c(F)nc(N)c([2H])c1[2H] (single isomer, unassigned) [Example 132, (3S *,8aR*)-3-(5-(6-amino-2-fluoropyridin-3-yl-4,5-d2)-1H-imidazol-2-yl-4-d)-7-(3-chloro-2-fluoro-6-(1H-tetrazol-1-yl)phenyl)-2,3,8,8a-tetrahydroindolizin-5(1H)-one-8a-d] |  | 8.17 | 9.40 | 
11 | COC(=O)Nc1ccc(-c2cnc([C@@H]3CCC4CC(c5c(OCC(F)(F)F)ccc(Cl)c5F)=CC(=O)N43)[nH]2)cc1 (stereo partly drawn) [Example 324, Methyl (4-(2-((3S)-7-(3-Chloro-2-fluoro-6-(2,2,2-trifluoroethoxy)phenyl)-5-oxo-1,2,3,5,8,8a-hexahydroindolizin-3-yl)-1H-imidazol-5-yl)phenyl)carbamate] | 7.84 | 7.02 |  | 

Results, then the compound that gave them:

Row | pIC50 [1, 3] | pIC50 [2] | pIC50 [1, 4] | IC50 ([2]; μM, kinetic reads) [µM] | Compound
12 | 7.13 | 7.04 |  |  | O=C1C=C(c2c(-n3cnnn3)ccc(Cl)c2F)C[C@H]2CC[C@@H](c3ncc(-c4cnc5[nH]ccc5c4)[nH]3)N12 [Example 24, (3S,8aR)-3-(5-(1H-pyrrolo[2,3-b]pyridin-5-yl)-1H-imidazol-2-yl)-7-(3-chloro-2-fluoro-6-(1H-tetrazol-1-yl)phenyl)-2,3,8,8a-tetrahydroindolizin-5(1H)-one]
13 | 9.22 | 8.07 |  |  | [2H]c1cc(N)nc(F)c1-c1[nH]c([C@@H]2CC[C@@H]3CC(c4c(-n5cnnn5)ccc(Cl)c4F)=CC(=O)N32)nc1[2H] [Example 148, (3S,8aR)-3-[5-(6-amino-4-deuterio-2-fluoro-3-pyridyl)-4-deuterio-1H-imidazol-2-yl]-7-[3-chloro-2-fluoro-6-(tetrazol-1-yl)phenyl]-2,3,8,8a-tetrahydro-1H-indolizin-5-one]
14 | 8.02 | 7.69 |  |  | O=C1C=C(c2c(-n3cnnn3)ccc(Cl)c2F)C[C@H]2CC[C@H](c3ncc(-c4ccnc(-n5cncn5)c4F)[nH]3)N12 (single isomer, unassigned) [Example 112, (3*R,8aR)-7-(3-chloro-2-fluoro-6-(1H-tetrazol-1-yl)phenyl)-3-(5-(3-fluoro-2-(1H-1,2,4-triazol-1-yl)pyridin-4-yl)-1H-imidazol-2-yl)-2,3,8,8a-tetrahydroindolizin-5(1H)-one]
15 | 9.40 | 8.12 |  |  | CS(=O)(=O)Nc1nccc(-c2cnc([C@@H]3CC[C@@H]4CC(c5c(-n6cnnn6)ccc(Cl)c5F)=CC(=O)N43)[nH]2)c1F [Example 367, N-(4-(2-((3S,8aR)-7-(3-chloro-2-fluoro-6-(1H-tetrazol-1-yl)phenyl)-5-oxo-1,2,3,5,8,8a-hexahydroindolizin-3-yl)-1H-imidazol-5-yl)-3-fluoropyridin-2-yl)methanesulfonamide]
16 | 8.59 | 7.78 |  |  | NC(=O)c1ccc(-c2cnc([C@@H]3CC[C@@H]4CC(c5c(-n6cnnn6)ccc(Cl)c5F)=CC(=O)N43)[nH]2)cn1 (single isomer, unassigned) [Example 225]
17 | 9.70 | 8.85 |  |  | COC(=O)Nc1ccc(-c2cnc([C@@H]3CCC4CC(c5c(-n6cnnn6)ccc(Cl)c5F)=CC(=O)N43)[nH]2)cc1 (stereo partly drawn) [Example 355, Methyl (4-(2-((3S)-7-(3-chloro-2-fluoro-6-(1H-tetrazol-1-yl)phenyl)-5-oxo-1,2,3,5,8,8a-hexahydroindolizin-3-yl)-1H-imidazol-5-yl)phenyl)carbamate]
18 | 8.46 | 7.62 |  |  | CC1(O)CCc2c(-c3cnc(C4CCC5CC(c6c(-n7cnnn7)ccc(Cl)c6F)=CC(=O)N54)[nH]3)ccnc21 (centres unmarked) [Example 95, 7-(3-Chloro-2-fluoro-6-(1H-tetrazol-1-yl)phenyl)-3-(5-(7-hydroxy-7-methyl-6,7-dihydro-5H-cyclopenta[b]pyridin-4-yl)-1H-imidazol-2-yl)-2,3,8,8a-tetrahydroindolizin-5(1H)-one]
19 | 9.22 | 8.47 |  |  | NC(=O)c1ccc(-c2cnc([C@@H]3CC[C@@H]4CC(c5c(-n6cnnn6)ccc(Cl)c5F)=CC(=O)N43)[nH]2)c(F)c1 [Example 196, 4-(2-((3S,8aR)-7-(3-chloro-2-fluoro-6-(1H-tetrazol-1-yl)phenyl)-5-oxo-1,2,3,5,8,8a-hexahydroindolizin-3-yl)-1H-imidazol-4-yl)-3-fluorobenzamide]
20 | 8.89 | 8.03 |  |  | CC(O)COc1nccc(-c2cnc([C@@H]3CC[C@@H]4CC(c5c(-n6cnnn6)ccc(Cl)c5F)=CC(=O)N43)[nH]2)c1F (single isomer, unassigned) [Example 28]
21 | 8.34 | 8.49 |  |  | O=C1C=C(c2c(-n3cnnn3)ccc(Cl)c2F)C[C@H]2CC[C@@H](c3ncc(-c4ccnc(-n5nccn5)c4)[nH]3)N12 [Example 86, (3S,8aR)-7-[3-chloro-2-fluoro-6-(tetrazol-1-yl)phenyl]-3-[5-[2-(triazol-2-yl)-4-pyridyl]-1H-imidazol-2-yl]-2,3,8,8a-tetrahydro-1H-indolizin-5-one]
22 | 8.27 | 7.65 |  |  | CC(C)(O)CCc1nccc(-c2cnc([C@@H]3CC[C@H]4CC(c5c(-n6cnnn6)ccc(Cl)c5F)=CC(=O)N43)[nH]2)c1F (single isomer, unassigned) [Example 159, (3*S,8a*S)-7-(3-chloro-2-fluoro-6-(1H-tetrazol-1-yl)phenyl)-3-(5-(3-fluoro-2-(3-hydroxy-3-methylbutyl)pyridin-4-yl)-1H-imidazol-2-yl)-2,3,8,8a-tetrahydroindolizin-5(1H)-one]
